{"source": "patent US11795510B2", "about": "“Identification of epigenomic reprogramming in cancer and uses thereof” (The Johns Hopkins University, priority 2016, dated 2023)", "key": {"[1]": {"tested_on": "H3K9Me2, H3K27Ac, H3K27Me3 in LOCK regions of A38Lg", "test": "ChIP-seq on control (DMSO) and 6AN-treated A38Lg cells", "format": "cell-based, human", "conditions": "DMSO vs. 6AN", "method": "RNAi experiments were performed with siRNA transfections (Oligofectamine, Life Technologies) using negative control siRNA (Sigma, SIC001) and pre-designed siRNA oligonucleotides against indicated genes in parallel (Sigma, PGD: SASI_Hs02 00334150, CDH2: SASI_Hs01_00153995, TOP2B: SASI_Hs02_00311874). siRNAs against mutant KRAS^G12V (CUACGCCAACAGCUCCAAC) (SEQ ID NO:1) were custom designed. Cells were incubated with siRNAs for 4 days after transfection and harvested. For drug treatments in 2-D, cells were grown to 70-80% confluency and treated for 3 days with 250 uM 6AN or DMSO negative control.\nTests for statistical significance (two-tailed students t-test) were performed on data collected from technical replicate (performed in parallel at the same time) or biological replicate (performed at different times) experiments as indicated in the figure legends using excel software for western blot densitometry, MTT assays, and tumor measurements. Whole genome bisulfite sequencing and RNA-seq were performed with HiSeq instruments (Illumina) as described in Hansen et al. (Increased methylation variation in epigenetic domains across cancer types. Nat Genet 43, 768-75 (2011)). ChIP assays were performed as previously described for fixed cells with sonication. For ChIP-qPCR, equal amounts of paired input/IP DNA were amplified by real-time PCR (Roche LightCycler96) and fold enrichments calculated. Primer sequences are listed in Supplementary Table 11. […] IP sequencing reads were normalized to their corresponding inputs. […]\nChip-seq data processing. For 46 bp paired-end Illumina HiSeq2000 sequencing data, reads were aligned against human genome (hg19) using BWA with default parameters as described in Li et al. (Fast and accurate short read alignment with Burrows-Wheeler transform. Bioinformatics 25, 1754-60 (2009)). After alignment, duplicate reads were removed and only uniquely aligned reads were kept for further analysis. For 48 bp single-end Solid sequencing data, reads were aligned using Bowtie^7 with default parameters and only uniquely aligned reads were kept for further analysis. […]"}, "[2]": {"tested_on": "glucose incorporation into lactate and nucleotides (PPP)", "test": "13C-1,2 glucose tracing by LC-HRMS", "format": "cell-based, human", "conditions": "10 mM 13C-1,2 glucose, 36 hours", "method": "Tissue samples and cell lines were previously collected from PDAC patients by rapid autopsy, sequenced-validated, and monitored for mycoplasma as previously described. Low passage (2-17) rapid autopsy cell lines were cultured at 37° C. in DMEM with 10% fetal bovine serum (FBS, Gibco). For MTT assays, 15,000 cells/well were plated into 96 well plates in triplicate, treated 12 hours later, and assayed after 24 hr (glucose responses) or 6 days (chemotherapy) with CellTiter96 (Promega). For glucose response assays, nutrient-deplete DMEM (no glucose, glutamine, pyruvate, or serum) was used with addition of glucose as indicated. […] Cells were then washed with PBS, trypsinized, and viable cells counted with a hemocytometer. Glucose uptake and lactate secretion were measured with a YSI 7100 Bioanalyzer as described in the supplementary methods. […]\nLC-HRMS Metabolite Profiling. LC-HRMS samples were prepared and analyzed as described in Liu et al. (Development and quantitative evaluation of a high-resolution metabolomics technology. Anal Chem 86, 2175-84 (2014)). […] Additional replicates were also included and counted at the end of the experiment for normalization. […] Pellets were reconstituted into a volume normalized to protein content (15 uL of 1:1 acetonitrile:methanol and 15 uL of water was used per 1 mg protein) and analyzed by LC-QE-MS. […]"}}, "note": "“Also recorded” adds a separate entry of the source.", "data": [{"smiles": "NC(=O)c1ccc(N)nc1", "note": "[6AN, 6-aminonicotinamide]", "values": [{"measurement": "H3K27Ac at genes repressed from LOCKs (ChIP-seq)", "setting": "[1]", "result": "reduced"}, {"measurement": "LOCK-wide H3K9Me2 from reprogrammed regions (ChIP-seq)", "setting": "[1]", "result": "quantitative increase"}, {"measurement": "levels of H3K27Me3 (ChIP-seq)", "setting": "[1]", "result": "remained stable; also recorded: unchanged"}, {"measurement": "incorporation of labeled glucose into lactate and nucleotides (metabolites downstream of the PPP)", "setting": "[2]", "result": "reversed the previously detected high incorporation; also recorded: reduced incorporation"}]}]}
